{"source": "patent US4994376A", "about": "“Detection of bacteroides gingivalis” (priority 1987, dated 1991)", "type_in_all_cases": "biochemical", "key": {"Bacteroides gingivalis": {"tested_on": "Bacteroides gingivalis", "details": "β-naphthylamine liberated after 60 minutes, 37° C.", "outline": "(§1)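 Hydrolysis of N-CBz-glycyl-glycyl-L-arginine-β-naphthylamide over 1 h at 37 °C, then colour developed with Fast Garnet GBC (0.5 mg/ml) in 1M acetate pH 4.2 with 10% Tween 20 for 15 min at room temperature. Absorbance read at 525 nm against an enzyme-free control; activity given as nmol β-naphthylamine released in 60 min.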"}, "C. ochracea": {"tested_on": "C. ochracea", "details": "strain ATCC 27872; β-naphthylamine liberated after 60 minutes, 37° C.", "outline": "as §1"}, "Capnocytophaga sp.": {"tested_on": "Capnocytophaga sp.", "details": "strain JD3-5; β-naphthylamine liberated after 60 minutes, 37° C.", "outline": "as §1"}, "B. levii": {"tested_on": "B. levii", "details": "β-naphthylamine liberated after 60 minutes, 37° C.", "outline": "as §1"}, "B. intermedius": {"tested_on": "B. intermedius", "experiment": "Aminopeptidase activity on β-naphthylamide substrates", "details": "strain ATCC 25611; β-naphthylamine liberated after 60 minutes, 37° C.", "outline": "as §1"}, "C. sputigena": {"tested_on": "C. sputigena", "experiment": "Aminopeptidase activity on β-naphthylamide substrates", "details": "strain ATCC 33123; β-naphthylamine liberated after 60 minutes, 37° C.", "outline": "as §1"}, "B. melaninogenicus": {"tested_on": "B. melaninogenicus", "experiment": "Aminopeptidase activity on β-naphthylamide substrates", "details": "strain ATCC 25845; β-naphthylamine liberated after 60 minutes, 37° C.", "outline": "as §1"}, "B. corporis": {"tested_on": "B. corporis", "experiment": "Aminopeptidase activity on β-naphthylamide substrates", "details": "strain ATCC 33547; β-naphthylamine liberated after 60 minutes, 37° C.", "outline": "as §1"}, "B. denticola": {"tested_on": "B. denticola", "experiment": "Aminopeptidase activity on β-naphthylamide substrates", "details": "strain ATCC 33185; β-naphthylamine liberated after 60 minutes, 37° C.", "outline": "as §1"}, "Campylobacter sputorum": {"tested_on": "Campylobacter sputorum", "details": "strain Ba1-21; β-naphthylamine liberated after 60 minutes, 37° C.", "outline": "(§2)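 Chromogenic assay using N-CBz-glycyl-glycyl-L-arginine-β-naphthylamide, incubated 1 hour at 37° C. Liberated β-naphthylamine is coupled with Fast Garnet GBC (0.5 mg/ml) in 1M acetic acid pH 4.2 with 10% Tween 20 for 15 min at room temperature, then read at 525 nm.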"}, "S. sanguis": {"tested_on": "S. sanguis", "details": "β-naphthylamine liberated after 60 minutes, 37° C.", "outline": "as §2"}, "Actinomyces israeli": {"tested_on": "Actinomyces israeli", "details": "β-naphthylamine liberated after 60 minutes, 37° C.", "outline": "as §2"}, "A. viscosus": {"tested_on": "A. viscosus", "details": "β-naphthylamine liberated after 60 minutes, 37° C.", "outline": "as §2"}, "Streptococcus mitis": {"tested_on": "Streptococcus mitis", "details": "β-naphthylamine liberated after 60 minutes, 37° C.", "outline": "as §2"}, "\"Anaerobic vibrio\"": {"tested_on": "\"Anaerobic vibrio\"", "details": "strain SN2T2; β-naphthylamine liberated after 60 minutes, 37° C.", "outline": "as §2"}, "[1]": {"tested_on": "Actinobacillus actinomycetemcomitans", "details": "β-naphthylamine liberated after 60 minutes, 37° C.", "outline": "as §2"}, "Veillonella sp.": {"tested_on": "Veillonella sp.", "details": "strain SE1M2; β-naphthylamine liberated after 60 minutes, 37° C.", "outline": "as §2"}, "V. parvula": {"tested_on": "V. parvula", "details": "strain ATCC 10790; β-naphthylamine liberated after 60 minutes, 37° C.", "outline": "as §2"}, "S. mutans": {"tested_on": "S. mutans", "details": "strain ATCC 25175; β-naphthylamine liberated after 60 minutes, 37° C.", "outline": "as §2"}, "Fusobacterium nucleatum": {"tested_on": "Fusobacterium nucleatum", "details": "β-naphthylamine liberated after 60 minutes, 37° C.", "outline": "as §2"}, "A. seminis": {"tested_on": "A. seminis", "details": "strain ATCC 15768; β-naphthylamine liberated after 60 minutes, 37° C.", "outline": "as §2"}, "Eikenella corrodens": {"tested_on": "Eikenella corrodens", "details": "strain BP1-6; β-naphthylamine liberated after 60 minutes, 37° C.", "outline": "as §2"}, "F. periodonticum": {"tested_on": "F. periodonticum", "experiment": "Aminopeptidase activity on β-naphthylamide substrates", "details": "strain EK1-15; β-naphthylamine liberated after 60 minutes, 37° C.", "outline": "as §2"}, "A. suis": {"tested_on": "A. suis", "experiment": "Aminopeptidase activity on β-naphthylamide substrates", "details": "strain ATCC 15557; β-naphthylamine liberated after 60 minutes, 37° C.", "outline": "as §2"}, "L. fermentum": {"tested_on": "L. fermentum", "experiment": "Aminopeptidase activity on β-naphthylamide substrates", "details": "strain ATCC 11581; β-naphthylamine liberated after 60 minutes, 37° C.", "outline": "as §2"}, "Lactobacillus casei": {"tested_on": "Lactobacillus casei", "experiment": "Aminopeptidase activity on β-naphthylamide substrates", "details": "β-naphthylamine liberated after 60 minutes, 37° C.", "outline": "as §2"}, "Haemophilus aphrophilus": {"tested_on": "Haemophilus aphrophilus", "experiment": "Aminopeptidase activity on β-naphthylamide substrates", "details": "β-naphthylamine liberated after 60 minutes, 37° C.", "outline": "as §2"}, "S. salivarius": {"tested_on": "S. salivarius", "experiment": "Aminopeptidase activity on β-naphthylamide substrates", "details": "β-naphthylamine liberated after 60 minutes, 37° C.", "outline": "as §2"}, "A. equuli": {"tested_on": "A. equuli", "experiment": "Aminopeptidase activity on β-naphthylamide substrates", "details": "strain ATCC 19392; β-naphthylamine liberated after 60 minutes, 37° C.", "outline": "as §2"}}, "note": "Like-named read-outs stand apart in the source and are kept apart here.", "data": [{"smiles": "NC(=O)[C@@H](N)CCC(=O)O", "note": "[α-Glu, α -glutamine]", "values": [{"measurement": "Aminopeptidase activity", "setting": "Bacteroides gingivalis; strain 9-14K-1", "value": 0, "unit": "nmol"}, {"measurement": "Aminopeptidase activity", "setting": "Bacteroides gingivalis; strain 11-1-2", "value": 0, "unit": "nmol"}, {"measurement": "Aminopeptidase activity", "setting": "Bacteroides gingivalis; strain 381", "value": 0, "unit": "nmol"}, {"measurement": "Aminopeptidase activity", "setting": "Bacteroides gingivalis; strain 1021", "value": 0, "unit": "nmol"}, {"measurement": "Aminopeptidase activity", "setting": "Bacteroides gingivalis; strain ATCC 33277", "value": 1, "unit": "nmol"}, {"measurement": "Aminopeptidase activity", "setting": "Bacteroides gingivalis; strain FAYE 19m-1", "value": 0, "unit": "nmol"}, {"measurement": "Aminopeptidase activity", "setting": "C. ochracea", "value": 5, "unit": "nmol"}, {"measurement": "Aminopeptidase activity", "setting": "Capnocytophaga sp.", "value": 0, "unit": "nmol"}, {"measurement": "Aminopeptidase activity", "setting": "B. levii; strain 18-1-5", "value": 0, "unit": "nmol"}, {"measurement": "Aminopeptidase activity", "setting": "B. levii; strain 18-1-8", "value": 2, "unit": "nmol"}, {"measurement": "Aminopeptidase activity", "setting": "B. intermedius", "value": 0, "unit": "nmol"}, {"measurement": "Aminopeptidase activity", "setting": "C. sputigena", "value": 7, "unit": "nmol"}, {"measurement": "Aminopeptidase activity", "setting": "B. melaninogenicus", "value": 1, "unit": "nmol"}, {"measurement": "Aminopeptidase activity", "setting": "B. corporis", "value": 0, "unit": "nmol"}, {"measurement": "Aminopeptidase activity", "setting": "B. denticola", "value": 0, "unit": "nmol"}, {"measurement": "Aminopeptidase activity", "setting": "Campylobacter sputorum", "value": 1, "unit": "nmol"}, {"measurement": "Aminopeptidase activity", "setting": "S. sanguis; strain ATCC 10556", "value": 0, "unit": "nmol"}, {"measurement": "Aminopeptidase activity", "setting": "S. sanguis; strain ATCC 10557", "value": 0, "unit": "nmol"}, {"measurement": "Aminopeptidase activity", "setting": "Actinomyces israeli; strain ATCC 12103", "value": 0, "unit": "nmol"}, {"measurement": "Aminopeptidase activity", "setting": "Actinomyces israeli; strain DK2-3", "value": 0, "unit": "nmol"}, {"measurement": "Aminopeptidase activity", "setting": "A. viscosus; strain ATCC 19246", "value": 0, "unit": "nmol"}, {"measurement": "Aminopeptidase activity", "setting": "A. viscosus; strain T14V", "value": 0, "unit": "nmol"}, {"measurement": "Aminopeptidase activity", "setting": "Streptococcus mitis; strain ATCC 9815", "value": 0, "unit": "nmol"}, {"measurement": "Aminopeptidase activity", "setting": "Streptococcus mitis; strain ATCC 15909", "value": 0, "unit": "nmol"}, {"measurement": "Aminopeptidase activity", "setting": "Streptococcus mitis; strain ATCC 15911", "value": 0, "unit": "nmol"}, {"measurement": "Aminopeptidase activity", "setting": "Streptococcus mitis; strain ATCC 15912", "value": 0, "unit": "nmol"}, {"measurement": "Aminopeptidase activity", "setting": "\"Anaerobic vibrio\"", "value": 0, "unit": "nmol"}, {"measurement": "Aminopeptidase activity", "setting": "[1]; strain 67", "value": 0, "unit": "nmol"}, {"measurement": "Aminopeptidase activity", "setting": "[1]; strain 75", "value": 0, "unit": "nmol"}, {"measurement": "Aminopeptidase activity", "setting": "[1]; strain ATCC 29523", "value": 0, "unit": "nmol"}, {"measurement": "Aminopeptidase activity", "setting": "[1]; strain NCTC 9709", "value": 0, "unit": "nmol"}, {"measurement": "Aminopeptidase activity", "setting": "[1]; strain Y4", "value": 0, "unit": "nmol"}, {"measurement": "Aminopeptidase activity", "setting": "Veillonella sp.", "value": 0, "unit": "nmol"}, {"measurement": "Aminopeptidase activity", "setting": "V. parvula", "value": 0, "unit": "nmol"}, {"measurement": "Aminopeptidase activity", "setting": "S. mutans", "value": 0, "unit": "nmol"}, {"measurement": "Aminopeptidase activity", "setting": "Fusobacterium nucleatum; strain 2", "value": 0, "unit": "nmol"}, {"measurement": "Aminopeptidase activity", "setting": "Fusobacterium nucleatum; strain ATCC 25586", "value": 0, "unit": "nmol"}, {"measurement": "Aminopeptidase activity", "setting": "Fusobacterium nucleatum; strain D31A-24", "value": 1, "unit": "nmol"}, {"measurement": "Aminopeptidase activity", "setting": "A. seminis", "value": 0, "unit": "nmol"}, {"measurement": "Aminopeptidase activity", "setting": "Eikenella corrodens", "value": 0, "unit": "nmol"}, {"measurement": "Aminopeptidase activity", "setting": "F. periodonticum", "value": 0, "unit": "nmol"}, {"measurement": "Aminopeptidase activity", "setting": "A. suis", "value": 0, "unit": "nmol"}, {"measurement": "Aminopeptidase activity", "setting": "L. fermentum", "value": 0, "unit": "nmol"}, {"measurement": "Aminopeptidase activity", "setting": "Lactobacillus casei; strain ATCC 7469", "value": 0, "unit": "nmol"}, {"measurement": "Aminopeptidase activity", "setting": "Lactobacillus casei; strain ATCC 11578", "value": 3, "unit": "nmol"}, {"measurement": "Aminopeptidase activity", "setting": "Lactobacillus casei; strain ATCC 11582", "value": 3, "unit": "nmol"}, {"measurement": "Aminopeptidase activity", "setting": "Haemophilus aphrophilus; strain ATCC 13252", "value": 0, "unit": "nmol"}, {"measurement": "Aminopeptidase activity", "setting": "Haemophilus aphrophilus; strain ATCC 19415", "value": 0, "unit": "nmol"}, {"measurement": "Aminopeptidase activity", "setting": "Haemophilus aphrophilus; strain NCTC 5908", "value": 0, "unit": "nmol"}, {"measurement": "Aminopeptidase activity", "setting": "S. salivarius; strain ATCC 9759", "value": 0, "unit": "nmol"}, {"measurement": "Aminopeptidase activity", "setting": "S. salivarius; strain ATCC 25975", "value": 0, "unit": "nmol"}, {"measurement": "Aminopeptidase activity", "setting": "A. equuli", "value": 0, "unit": "nmol"}]}]}
